Assay results from ChEMBL document CHEMBL3108758, “Design, synthesis, and biological evaluation of potent and selective class IIa histone deacetylase (HDAC) inhibitors as a potential therapy for Huntington's disease” (J Med Chem, 2013).

Tests used:
[1] = Tmax in C57BL/6JO1aHsd mouse muscle at 10 mg/kg, po; format: ADME, organism-based, Muscle tissue; set-up: dose 10 mg/kg, route oral
[2] = Volume of distribution at steady state in C57BL/6JO1aHsd mouse at 5 mg/kg, iv; format: ADME, organism-based; set-up: dose 5 mg/kg, route intravenous; settings: in vivo, read-out: Vdss
Brain [3] = test: Cmax in C57BL/6JO1aHsd mouse brain at 10 mg/kg, po; format: ADME, organism-based; set-up: dose 10 mg/kg, route oral; settings: in vivo
Plasma [4] = test: Cmax in C57BL/6JO1aHsd mouse plasma at 10 mg/kg, po; format: ADME, organism-based; set-up: dose 10 mg/kg, route oral; settings: in vivo
Muscle tissue [5] = test: Cmax in C57BL/6JO1aHsd mouse muscle at 10 mg/kg, po; format: ADME, organism-based; set-up: dose 10 mg/kg, route oral; settings: in vivo
Brain [6] = test: Dose normalized AUC in C57BL/6JO1aHsd mouse brain at 10 mg/kg, po; format: ADME, organism-based; set-up: dose 10 mg/kg, route oral; settings: in vivo
Muscle tissue [7] = test: Dose normalized AUC in C57BL/6JO1aHsd mouse muscle at 10 mg/kg, po; format: ADME, organism-based; set-up: dose 10 mg/kg, route oral; settings: in vivo
Plasma [8] = test: Dose normalized AUC in C57BL/6JO1aHsd mouse plasma at 10 mg/kg, po; format: ADME, organism-based; set-up: dose 10 mg/kg, route oral; settings: in vivo
[9] = Oral bioavailability in C57BL/6JO1aHsd mouse at 10 mg/kg; format: ADME, organism-based; settings: in vivo
[10] = Tmax in C57BL/6JO1aHsd mouse plasma at 10 mg/kg, po; format: ADME, organism-based; set-up: dose 10 mg/kg, route oral
[11] = Tmax in C57BL/6JO1aHsd mouse brain at 10 mg/kg, po; format: ADME, organism-based; set-up: dose 10 mg/kg, route oral
[12] = Ratio of drug uptake from muscle to plasma in C57BL/6JO1aHsd mouse at 10 mg/kg, po; format: ADME, organism-based; set-up: dose 10 mg/kg, route oral
[13] = Ratio of drug uptake from brain to plasma in C57BL/6JO1aHsd mouse at 10 mg/kg, po; format: ADME, organism-based; set-up: dose 10 mg/kg, route oral; settings: read-out: BPR

Structure (SMILES) | Tmax [1] | Vd [2] | Cmax normalised (Brain [3]) | Cmax normalised (Plasma [4]) | Cmax normalised (Muscle tissue [5]) | AUC/dose (Brain [6]) | AUC/dose (Muscle tissue [7]) | AUC/dose (Plasma [8]) | bioavailability [9] | Tmax [10] | Tmax [11] | Kp [12] | Kp [13]
O=C(NO)[C@@H]1[C@H](c2ccccc2)[C@H]1c1ccc2c(c1)CN(CC(F)(F)F)C2=O | 60 min | 4.6 L/kg | 5.7 nM·kg/mg | 280 nM·kg/mg | 160 nM·kg/mg | 17 nM·kg·h/mg | 1000 nM·kg·h/mg | 1100 nM·kg·h/mg | 62% | 30 min | 30 min | – | –
O=C(NO)[C@@H]1[C@H](c2ccccc2)[C@H]1c1ccc(-c2cnc(C3CC3)o2)cc1 | 60 min | 1.6 L/kg | 200 nM·kg/mg | 810 nM·kg/mg | 420 nM·kg/mg | 390 nM·kg·h/mg | 1000 nM·kg·h/mg | 1500 nM·kg·h/mg | 73% | 30 min | 60 min | 0.4 | 0.3
O=C(NO)[C@@H]1[C@H](c2ccccc2)[C@H]1c1ccc(-c2cnco2)cc1 | 30 min | 0.74 L/kg | 670 nM·kg/mg | 1200 nM·kg/mg | 730 nM·kg/mg | 700 nM·kg·h/mg | 810 nM·kg·h/mg | 1300 nM·kg·h/mg | 84% | 30 min | 30 min | – | –
